The source of these data is US11912675B1, “N'-(2-(5-(4-chlorophenyl)-1,3,4-oxadiazol-2-ylthio)acetoxy)-3,4-dimethoxybenzimidamide as an antimicrobial compound” (KING FAISAL UNIVERSITY, priority 2023, dated 2024).

Common to all, as to type: cell-based
Test [1] relates to Chrysosporium keratinophilum. The test can be described thus: agar plate disc-diffusion, antifungal, Chrysosporium keratinophilum. The following applies: Sabouraud's dextrose agar, 72 h, DMSO control zone subtracted. Here is the method:
(§1) The agar plate disc-diffusion method was applied. […] The discs were then placed onto the surface of agar plates (nutrient agar for bacteria and Sabouraud's dextrose agar for fungi) seeded with the test organism. Each plate contained 15 mL of the agar medium, previously seeded with 0.2 mL of the broth culture of each organism pregrown for 18 h. The plates were incubated at 37° C. for 48 h, and 72 h for fungi. The inhibition zones was measured in mm. Discs impregnated with DMSO were used as a control, and its inhibition zone was subtracted from the tested compound actual inhibition zone.
(§2) The antibacterial activity was screened against gram positive bacteria namely Bacillus cereus and Staphylococcus aureus and gram-negative bacterial strains namely Pseudomonas aeruginosa and Escherichia coli, while the antifungal activity was screened against Aspergillus flavus and Chrysosporium keratinophilum as shown in Table 1 and 2.
For orientation: Agar diffusion results depend on both activity and mobility in agar.

For the next test, the system named is Pseudomonas aeruginosa. In words: agar plate disc-diffusion, antibacterial, Pseudomonas aeruginosa. The following applies: nutrient agar, 37° C., 48 h, DMSO control zone subtracted. The protocol:
as §1, §2

In the next test the test system is Aspergillus flavus. In words: agar plate disc-diffusion, antifungal, Aspergillus flavus. The following applies: Sabouraud's dextrose agar, 72 h, DMSO control zone subtracted. Here is the method: as §1, §2
Another test concerns Bacillus cereus. In words: agar plate disc-diffusion, antibacterial, Bacillus cereus. The following applies: nutrient agar, 37° C., 48 h, DMSO control zone subtracted. The protocol: as §1, §2
The test system of a further test is Staphylococcus aureus. In words: agar plate disc-diffusion, antibacterial, Staphylococcus aureus. The following applies: nutrient agar, 37° C., 48 h, DMSO control zone subtracted. The protocol:
as §1, §2

For a further test, the system named is Escherichia coli. The test can be described thus: agar plate disc-diffusion, antibacterial, Escherichia coli. The following applies: nutrient agar, 37° C., 48 h, DMSO control zone subtracted. Here is the method: The agar plate disc-diffusion method was applied. Sterilized filter papers (6 mm in diameter) were wetted with 10 μL of a solution of N′-(2-(5-(4-chlorophenyl)-1,3,4-oxadiazol-2-ylthio)acetoxy)-3,4-dimethoxybenzimidamide (3) to be tested, containing 10 mg/mL in DMSO, and the discs were allowed to air dry. The discs were then placed onto the surface of agar plates (nutrient agar for bacteria and Sabouraud's dextrose agar for fungi) seeded with the test organism. Each plate contained 15 mL of the agar medium, previously seeded with 0.2 mL of the broth culture of each organism pregrown for 18 h. The plates were incubated at 37° C. for 48 h, and 72 h for fungi. The inhibition zones was measured in mm. Discs impregnated with DMSO were used as a control, and its inhibition zone was subtracted from the tested compound actual inhibition zone.
as §2

Where [2] appears, read: B = concentration of comp. = 30,000 μL.
[3] abbreviates: C = concentration of comp. = 50,000 μL.
The mark [4] stands for this setting: A = concentration of comp. = 10,000 μL.
Setting [5] is: A = concentration of comp. = 10,000 μg/mL.

In the case of `COc1ccc(/C(N)=N/OC(=O)CSc2nnc(-c3ccc(Cl)cc3)o2)cc1OC` [compound 3, N′-(2-(5-(4-chlorophenyl)-1,3,4-oxadiazol-2-ylthio)acetoxy)-3,4-dimethoxybenzimidamide], the “inhibition zone, Chrysosporium keratinophilum, A” value in test [1] (A =) was 26 mm. Also, in test [1] (setting [2]), the “inhibition zone, Chrysosporium keratinophilum, B” value is 27 mm. In addition, in test [1] (setting [3]), the “inhibition zone, Chrysosporium keratinophilum, C” value amounted to 40 mm. In addition, the “inhibition zone, Pseudomonas aeruginosa, A” value in the test with Pseudomonas aeruginosa (setting [4]) is 25 mm. Also, in the test with Pseudomonas aeruginosa (setting [2]), the “inhibition zone, Pseudomonas aeruginosa, B” value is on record as 29 mm. Also, the “inhibition zone, Pseudomonas aeruginosa, C” value with Pseudomonas aeruginosa (setting [3]) was determined as 41 mm. In the test with Aspergillus flavus (setting [4]), the “inhibition zone, Aspergillus flavus, A” value is given as 22 mm. In the test on Aspergillus flavus (setting [2]), the “inhibition zone, Aspergillus flavus, B” value is recorded as 26 mm. In the test on Aspergillus flavus (setting [3]), the “inhibition zone, Aspergillus flavus, C” value turned out to be 37 mm. In the test on Bacillus cereus (A =), the “inhibition zone, Bacillus Cereus, A” value is on record as 27 mm. Also, the “inhibition zone, Bacillus Cereus, B” value in the test on Bacillus cereus (setting [2]) was found to be 30 mm. The “inhibition zone, Bacillus Cereus, C” value with Bacillus cereus (setting [3]) came to 40 mm. Moreover, the “inhibition zone, Staphylococcus aureus, A” value with Staphylococcus aureus (setting [5]) is on record as 17 mm. In the test with Staphylococcus aureus (setting [2]), the “inhibition zone, Staphylococcus aureus, B” value was 22 mm. Also, the “inhibition zone, Staphylococcus aureus, C” value in the test with Staphylococcus aureus (setting [3]) is 37 mm. Also, the “inhibition zone, Escherichia coli, A” value in the test with Escherichia coli (setting [5]) came to 28 mm. Besides, the “inhibition zone, Escherichia coli, B” value in the test on Escherichia coli (setting [2]) came out at 31 mm. Moreover, the “inhibition zone, Escherichia coli, C” value in the test on Escherichia coli (setting [3]) worked out at 48 mm.
